Measurements taken from BigSolDB 2.1.

CC(=O)Nc1ccc(OC(=O)c2ccccc2OC(C)=O)cc1
solubility (mole fraction)
Details | 278.15 K | 283.15 K | 288.15 K | 293.15 K | 298.15 K | 303.15 K | 308.15 K | 313.15 K | 318.15 K | 323.15 K
in DMAc | 0.058 | 0.0623 | 0.0687 | 0.075 | 0.0814 | 0.0875 | 0.0954 | 0.103 | 0.112 | 0.12
in DMSO | – | – | – | 0.0385 | 0.0463 | 0.0544 | 0.0637 | 0.0743 | 0.0865 | 0.1
in methyl acetate | 0.0011 | 0.00138 | 0.00164 | 0.00199 | 0.00238 | 0.00289 | 0.00344 | 0.00412 | 0.00496 | 0.00602
in n-butyl acetate | 0.000482 | 0.000609 | 0.000727 | 0.000899 | 0.00106 | 0.0013 | 0.0016 | 0.00189 | 0.00229 | 0.00272
in n-pentyl acetate | 0.000309 | 0.000392 | 0.000509 | 0.000638 | 0.000794 | 0.000983 | 0.00121 | 0.00149 | 0.0018 | 0.00217
in n-propyl acetate | 0.00053 | 0.000653 | 0.000831 | 0.00104 | 0.00127 | 0.00154 | 0.00186 | 0.00221 | 0.00275 | 0.00324
